From patent US20220162561A1, “COMPOSITION FOR PROMOTING SECRETION OF EXTRACELLULAR VESICLES” (priority 2019, published 2022)

How the values were obtained:
Type in all cases: cell-based
[1] = tested on: mesenchymal stem cells derived from human umbilical cord matrix; assay: Test Example 8: cytotoxicity, LDH activity in culture solution
Method: (§1) Mesenchymal stem cells derived from human bone marrow or mesenchymal stem cells derived from human umbilical cord matrix (#C-12974, #C-12971 manufactured by Takara Bio Inc.) were suspended in mesenchymal stem cell growth medium 2 (C-28009 manufactured by Takara Bio Inc.) so as to be 8×10^4 cells/1.8 mL, and seeded on a 6-well cell culture treatment plate (3516 manufactured by Corning Inc.). To the seeded mesenchymal stem cells was added each 200 μL of the compounds of Examples 1 to 8 diluted to 10-fold concentration with the mesenchymal stem cell growth medium 2, and after culturing for 24 hours, the culture solution was recovered. The activity of lactate dehydrogenase (LDH) contained in the recovered culture solution was measured by using LDH Cytotoxicity Detection Kit (MK401 manufactured by Takara Bio Inc.). To a freeze-dried product of Solution A was added 1 mL of purified water to completely dissolve therein, then, 250 μL of Solution A and 11.25 mL of Solution B were mixed to prepare Solution C. To 100 μL of the recovered culture solution was added 100 μL of Solution C, and the mixture was reacted at room temperature for 30 minutes. Absorbance at 490 nm was measured using Enspire (manufactured by PerkinElmer). Based on the obtained measured values, a relative value when the compound untreated group (control) was set to 1 was calculated.

[2] = tested on: mesenchymal stem cells derived from human bone marrow; assay: as above
Method: as §1

[3] = tested on: human bone marrow-derived mesenchymal stem cells; assay: Test Example 7: promotion of secretion of extracellular vesicles, PS Capture exosome ELISA (anti-CD63); settings: 24 hours, compound untreated group (control) set to 1
Method: (§2) Human bone marrow-derived mesenchymal stem cells or human umbilical cord matrix-derived mesenchymal stem cells (#C-12974, #C-12971 manufactured by Takara Bio Inc.) were suspended in mesenchymal stem cell growth medium 2 (C-28009 manufactured by Takara Bio Inc.) so as to be 8×10^4 cells/1.8 mL, and seeded on a 6-well cell culture treatment plate (3516 manufactured by Corning Inc.). To the seeded mesenchymal stem cells was added each 200 μL of the compounds of Examples 1 to 8 diluted to 10-fold concentration with the mesenchymal stem cell growth medium 2, and after culturing for 24 hours, the culture solution was recovered. Subsequently, the recovered culture solution was centrifuged under 20,000×g at 4° C. for 60 minutes to prepare a culture solution from which cell fragments and Large Extracellular Vesicles were removed. For the detection of extracellular vesicles, PS Capture (trademark) exosome ELISA kit (anti-mouse IgG POD) (#297-79201 manufactured by FUJIFILM Wako Pure Chemical Corporation) was used.
(§3) To Reaction/Washing Buffer (1×) prepared by diluting Reaction/Washing Buffer (10×) 10-fold with purified water was added 1/100 amount of Exosome Binding Enhancer (100×) to prepare a Reaction/Washing Buffer (1×). Each culture solution was diluted 5-fold with the Reaction/Washing Buffer (1×). After washing Exosome Capture 96-well plate with 300 μL of the Reaction/Washing Buffer (1×) three times, 5-fold-diluted each extracellular vesicle solution, or the mesenchymal stem cell growth medium 2 in which no cell was cultured (negative control) was added to each well, and the mixture was reacted at room temperature for 2 hours while shaking with a microplate shaker. After completion of the reaction, the reaction mixture was discarded, and after washing each well with 300 μL of the Reaction/Washing Buffer (1×) three times, 100 μL of Primary Antibody Anti-CD63 (×100) diluted to 1,000-fold with the Reaction/Washing Buffer (1×) was added thereto, and the mixture were reacted at room temperature for 1 hour while shaking with a microplate shaker. After completion of the reaction, the reaction mixture was discarded, and after washing each well with 300 μL of the Reaction/Washing Buffer (1×) three times, 100 μL of Secondary Antibody HRP-conjugated Anti-mouse IgG (100×) diluted to 1,000-fold with the Reaction/Washing Buffer (1×) was added thereto, and the mixture were reacted at room temperature for 1 hour while shaking with a microplate shaker. After completion of the reaction, the reaction mixture was discarded, and after washing each well with 300 μL of the Reaction/Washing Buffer (1×) five times, 100 μL of TMB Solution was added, and after shaking with a microplate shaker for 1 minutes, the mixture was reacted at room temperature for 30 minutes. After completion of the reaction, 100 μL of Stop Solution was added thereto, and after shaking with a microplate shaker for 5 seconds, the absorbance at 450 nm and 620 nm was measured with Enspire (manufactured by PerkinElmer). Based on the obtained measured values, a value subtracting the absorbance at 620 nm from the absorbance at 450 nm was calculated and a relative value when the compound untreated group (control) was set to 1 was calculated.

[4] = tested on: human umbilical cord matrix-derived mesenchymal stem cells; assay: as above; settings: 24 hours, compound untreated group (control) set to 1
Method: as §2, §3

[5] = 2 μM, 24 hours, LDH, 490 nm, control set to 1
[6] = 20 nM, 24 hours, LDH, 490 nm, control set to 1

CC(=O)O.Cc1cc2c(C(C)C)c(O)c(O)c(C=O)c2c(O)c1-c1c(C)cc2c(C(C)C)c(O)c(O)c(C=O)c2c1O (racemic) [Example 1, (±)-Gossypol Acetate]
Relative value of absorbance [1, 5]: 0.78
Relative value of absorbance [2, 5]: 0.93
Relative value of difference of absorbance ([3]; 2 μM): 2.46
Relative value of difference of absorbance ([4]; 2 μM): 1.97

CC(=O)O.Cc1cc2c(C(C)C)c(O)c(O)c(C=O)c2c(O)c1-c1c(C)cc2c(C(C)C)c(O)c(O)c(C=O)c2c1O [Example 2, (S)-Gossypol Acetate]
Relative value of absorbance [1, 5]: 1.04
Relative value of absorbance [2, 5]: 0.99
Relative value of difference of absorbance ([3]; 2 μM): 2.14
Relative value of difference of absorbance ([4]; 2 μM): 1.57

Cc1cc2c(C(C)C)c(O)c(O)cc2c(O)c1-c1c(C)cc2c(C(C)C)c(O)c(O)cc2c1O [Example 3, (+)-Apogossypol]
Relative value of absorbance ([1]; human, 24 h, 2 μM): 1.06
Relative value of absorbance ([2]; human, 24 h, 2 μM): 0.99
Relative value of difference of absorbance ([3]; 2 μM): 1.53
Relative value of difference of absorbance ([4]; 2 μM): 1.31

Cc1cc2c(C(C)C)c(O)c(O)c(C=O)c2c(O)c1-c1c(C)cc2c(C(C)C)c(O)c(O)c(C=O)c2c1O [Example 4, (R)-(−)-Gossypol]
Relative value of absorbance [1, 5]: 0.88
Relative value of absorbance [2, 5]: 0.97
Relative value of difference of absorbance ([3]; 2 μM): 2.39
Relative value of difference of absorbance ([4]; 2 μM): 1.95

COC1=CC(c2cc3ccccc3[nH]2)=N/C1=C\c1[nH]c(C)cc1C.CS(=O)(=O)O [Example 5, Obatoclax Mesylate]
Relative value of absorbance [1, 6]: 0.94
Relative value of absorbance [2, 6]: 0.96
Relative value of difference of absorbance ([3]; 20 nM): 1.81
Relative value of difference of absorbance ([4]; 20 nM): 1.65

CCCCCC1=C/C(=C\c2[nH]c(-c3ccc[nH]3)cc2OC)N=C1C.Cl [Example 6, Prodigiosin Hydrochloride]
Relative value of absorbance [1, 6]: 0.97
Relative value of absorbance [2, 6]: 0.93
Relative value of difference of absorbance ([3]; 20 nM): 1.31
Relative value of difference of absorbance ([4]; 20 nM): 1.48

CCCCCCCCCCCc1ccc(/C=C2\N=C(c3ccc[nH]3)C=C2OC)[nH]1.Cl [Example 7, Undecylprodigiosin Hydrochloride]
Relative value of absorbance [1, 6]: 1.03
Relative value of absorbance [2, 6]: 0.99
Relative value of difference of absorbance ([3]; 20 nM): 2.88
Relative value of difference of absorbance ([4]; 20 nM): 1.74

Cc1cc2c(C(=O)NC[C@H](C)c3ccccc3)c(O)c(O)cc2c(O)c1-c1c(C)cc2c(C(=O)NC[C@H](C)c3ccccc3)c(O)c(O)cc2c1O [Example 8, Sabutoclax]
Relative value of absorbance [1, 5]: 1.15
Relative value of absorbance [2, 5]: 1.01
Relative value of difference of absorbance ([3]; 2 μM): 1.39
Relative value of difference of absorbance ([4]; 2 μM): 1.44
